System: primary CLL samples (CD19+ and CD5+ cells)
Test: High-throughput dynamic BH3 profiling (HT-DBP): drug-induced apoptotic priming (delta priming), cytochrome c release after BH3 peptide
Format: cell-based, human
Description: By “delta priming” is meant the difference in priming of a cell for apoptosis measured in the presence of an agent for treating chronic lymphocytic leukemia relative to priming of the cell in the presence of an inert carrier. In embodiments, the inert carrier is DMSO.
Dynamic BH3 Profiling Dynamic BH3 profiling (DBP) is a drug screening assay that measures the relative priming of cells in a biological sample for cell death by apoptosis in the presence of a specific compound and/or a pro-apoptotic peptide. By “Dynamic BH3 profiling” is meant measuring drug-induced changes in mitochondrial apoptotic priming. Mitochondrial apoptotic priming is a measure of how close to the apoptotic threshold a cell is. A highly primed cell has relatively less anti-apoptotic binding site availability and is closer to the apoptotic threshold than a poorly primed cell, which has more anti-apoptotic availability to buffer an apoptotic assault and is further from the apoptotic threshold. BH3 peptides derived from the BH3 domain of pro-apoptotic BH3-only proteins provoke a response from viable mitochondria. Cytochrome c released from the mitochondria after a short incubation with BH3 peptide is used as a surrogate for priming. In general, the more sensitive a mitochondrion is to a BH3 peptide, the more primed it is. A drug treatment that enhances priming will cause mitochondria to undergo MOMP more easily when incubated with a fixed concentration of a promiscuously binding BH3 peptide, such as BIM BH3 peptide, compared to control-treated cells. See, for example, Potter, D. S. & Letai, A. To prime, or not to prime: that is the question. Cold Spring Harb. Symp. Quant. Biol. 81, 131-140 (2016); Montero, J. et al. Drug-induced death signaling strategy rapidly predicts cancer response to chemotherapy. Cell 160, 977-989 (2015); Daniels, V. W. et al. Metabolic perturbations sensitize triple-negative breast cancers to apoptosis induced by BH3 mimetics. Sci.
Dynamic BH3 profiling and peptides for use therein are described, for example, in Certo, et al., “Mitochondria primed by death signals determine cellular addiction to antiapoptotic BCL-2 family members,” Cancer Cell, 9:351-365 (2006); and in Foight, et al. “Designed BH3 Peptides with High Affinity and Specificity for Targeting Mcl-1 in Cells,” ACS Chemical Biology, 9:1962-1968 (2014), the disclosures of which are incorporated herein by reference in their entireties for all purposes. The DBP assay enables one to compare the response of a patient tumor sample to a specific drug relative to other drugs and relative to an inert control (e.g., DMSO).
To address the challenge of selecting a proper treatment for a chronic lymphocytic leukemia, experiments were undertaken to optimize high-throughput dynamic BH3 profiling (HT-DBP) for evaluation of the drug sensitivities of CLL samples (FIGS. 1, 13, 5A, 5B, 6A, 6B, and 7A-7C).

[1] = peptide BAD 0.3 uM, feature loss_13q14.13
[2] = peptide BAD 0.3 uM, feature BIRC3
[3] = peptide BAD 0.3 uM, feature EC-m2
[4] = peptide BAD 0.3 uM, feature FBXW7
[5] = peptide BAD 0.3 uM, feature ITIH2
[6] = peptide BAD 0.3 uM, feature MYD88
[7] = peptide BAD 0.3 uM, feature gain_19p13.3
[8] = peptide BAD 0.3 uM, feature i-CLL
[9] = peptide BAD 0.3 uM, feature loss_3p21.31
[10] = peptide BAD 0.3 uM, feature loss_5p15.33
[11] = peptide BAD 0.3 uM, feature loss_7q36.1
[12] = peptide BAD 0.3 uM, feature loss_8p
[13] = peptide BAD 0.3 uM, feature loss_12p13.31a
[14] = peptide BAD 0.3 uM, feature loss_14q32.12
[15] = peptide BAD 0.3 uM, feature loss_17p13.1
[16] = peptide BAD 0.3 uM, feature loss_17p13.3
[17] = peptide BAD 0.3 uM, feature loss_17q11.2
[18] = peptide BIM 0.01 uM, feature EC-i
[19] = peptide BIM 0.01 uM, feature loss_1p36.11
[20] = peptide BIM 0.01 uM, feature loss_3p13
[21] = peptide BIM 0.01 uM, feature loss_10q24.32
[22] = peptide BIM 0.01 uM, feature loss_18q21.2
[23] = peptide BIM 0.01 uM, feature priortrt_Post
[24] = peptide MS1 2.5 uM, feature EC-m4
[25] = peptide PUMA 1 uM, feature loss_7q36.1
[26] = peptide PUMA 1 uM, feature loss_8p
[27] = peptide MS1 2.5 uM, feature IGLV321_R110
[28] = peptide MS1 2.5 uM, feature NOTCH1
[29] = peptide MS1 2.5 uM, feature RPS15
[30] = peptide MS1 2.5 uM, feature loss_6q

For CC(C)c1cc(C(=O)N2Cc3ccc(CN4CCN(C)CC4)cc3C2)c(O)cc1O [Onalespib], the direction (peptide BAD 0.3 uM, feature loss_1q42.13) was “Sensitive”, the direction [1] was “Sensitive” and the direction (peptide BAD 0.3 uM, feature loss_16p11.2) was “Sensitive”. The direction (peptide BIM 0.01 uM, feature loss_15q15.1b) was “Resistant”, the direction (peptide BIM 0.01 uM, feature loss_20p11.22) was “Resistant” and the direction (peptide MS1 2.5 uM, feature loss_19p13.11) was “Sensitive”. The direction (peptide PUMA 1 uM, feature loss_6q21) was “Resistant”.
CCS(=O)(=O)N1CCN(c2ccc(Nc3ncc(C(N)=O)c(NC4CC4)n3)cc2)CC1 [Cerdulatinib] was tested, and the direction (Feature loss_13q14.13) was “Sensitive”, the direction (Feature loss_13q14.3) was “Sensitive” and the drug-induced apoptotic priming (across CLL subtypes, 65 primary CLL samples, 20 hours drug) was “high priming”. The direction [1] was “Sensitive”, the direction (peptide BAD 0.3 uM, feature loss_13q14.3) was “Sensitive” and the direction (peptide BIM 0.01 uM, feature KMT2D) was “Sensitive”. For the same molecule, the direction (peptide BIM 0.01 uM, feature loss_13q14.13) was “Sensitive”, the direction (peptide BIM 0.01 uM, feature loss_13q14.3) was “Sensitive” and the direction (peptide MS1 2.5 uM, feature loss_13q14.13) was “Sensitive”. For the same molecule, the direction (peptide PUMA 1 uM, feature loss_13q14.13) was “Sensitive” and the direction (peptide PUMA 1 uM, feature loss_13q14.3) was “Sensitive”.
Cc1sc2c(c1C)C(c1ccc(Cl)cc1)=N[C@@H](CC(=O)OC(C)(C)C)c1nnc(C)n1-2 [JQ1] was tested, and the direction (Feature EC-i) was “Sensitive”, the direction (Feature FBXW7) was “Sensitive” and the direction [2] was “Sensitive”. For the same molecule, the dprim_pearson_corr [2] was 0.6355, the direction [3] was “Sensitive” and the dprim_pearson_corr [3] was 0.3877. For the same molecule, the direction [4] was “Sensitive”, the dprim_pearson_corr [4] was 0.5086 and the direction [5] was “Sensitive”. For the same molecule, the dprim_pearson_corr [5] was 0.6355, the direction [6] was “Resistant” and the dprim_pearson_corr [6] was −0.3438. For the same molecule, the direction [7] was “Sensitive”, the dprim_pearson_corr [7] was 0.359 and the direction [8] was “Sensitive”. For the same molecule, the dprim_pearson_corr [8] was 0.3327, the direction [9] was “Resistant” and the dprim_pearson_corr [9] was −0.3438. The direction [10] was “Resistant”, the dprim_pearson_corr [10] was −0.3996 and the direction [11] was “Resistant”. For the same molecule, the dprim_pearson_corr [11] was −0.3438, the direction [12] was “Resistant” and the dprim_pearson_corr [12] was −0.3438. The direction [13] was “Resistant”, the dprim_pearson_corr [13] was −0.3996 and the direction [14] was “Resistant”. For the same molecule, the dprim_pearson_corr [14] was −0.3438, the direction [15] was “Sensitive” and the dprim_pearson_corr [15] was 0.507. For the same molecule, the direction [16] was “Resistant”, the dprim_pearson_corr [16] was −0.3996 and the direction [17] was “Sensitive”. The dprim_pearson_corr [17] was 0.6355, the direction [18] was “Sensitive” and the dprim_pearson_corr [18] was 0.3826. The direction [19] was “Sensitive”, the dprim_pearson_corr [19] was 0.4365 and the direction [20] was “Sensitive”. For the same molecule, the dprim_pearson_corr [20] was 0.3364, the direction [21] was “Sensitive” and the dprim_pearson_corr [21] was 0.4365. The direction [22] was “Sensitive”, the dprim_pearson_corr [22] was 0.4365 and the direction [23] was “Sensitive”. The dprim_pearson_corr [23] was 0.3609, the direction [24] was “Sensitive” and the dprim_pearson_corr [24] was 0.3901. For the same molecule, the direction (peptide PUMA 1 uM, feature ATM) was “Resistant”, the direction (peptide PUMA 1 uM, feature EC-i) was “Resistant” and the direction (peptide PUMA 1 uM, feature MYD88) was “Resistant”. The direction (peptide PUMA 1 uM, feature gain_16p11.2) was “Resistant”, the direction (peptide PUMA 1 uM, feature loss_1p36.11) was “Sensitive” and the direction (peptide PUMA 1 uM, feature loss_1q21.3) was “Resistant”. For the same molecule, the direction (peptide PUMA 1 uM, feature loss_2q31.1) was “Resistant”, the direction (peptide PUMA 1 uM, feature loss_3p13) was “Sensitive” and the direction (peptide PUMA 1 uM, feature loss_3p21.31) was “Resistant”. For the same molecule, the direction (peptide PUMA 1 uM, feature loss_5p15.33) was “Resistant”, the direction (peptide PUMA 1 uM, feature loss_7p22.2) was “Resistant” and the direction [25] was “Resistant”. The direction [26] was “Resistant”, the direction (peptide PUMA 1 uM, feature loss_10p12.2) was “Resistant” and the direction (peptide PUMA 1 uM, feature loss_10q24.32) was “Sensitive”. For the same molecule, the direction (peptide PUMA 1 uM, feature loss_12p13.31a) was “Resistant”, the direction (peptide PUMA 1 uM, feature loss_14q32.12) was “Resistant” and the direction (peptide PUMA 1 uM, feature loss_16q22.1) was “Resistant”. The direction (peptide PUMA 1 uM, feature loss_17p13.3) was “Resistant” and the direction (peptide PUMA 1 uM, feature loss_18q21.2) was “Sensitive”.
For O=C(/C=C\n1cnc(-c2cc(C(F)(F)F)cc(C(F)(F)F)c2)n1)NNc1cnccn1 [Selinexor], the direction (Feature MYD88) was “Sensitive”, the direction [5] was “Sensitive” and the direction (peptide BIM 0.01 uM, feature MYD88) was “Sensitive”. The direction [25] was “Sensitive” and the direction [26] was “Sensitive”.
In the case of COc1ccc(-c2ccc3c(N4CCOC[C@@H]4C)nc(N4CCOC[C@@H]4C)nc3n2)cc1CO [AZD8055], the direction [27] is reported as “Resistant”, the direction [28] is reported as “Resistant” and the direction [29] is reported as “Resistant”. The direction (peptide MS1 2.5 uM, feature loss_1p36.11) was “Resistant”, the direction (peptide MS1 2.5 uM, feature loss_3p13) was “Resistant” and the direction [30] was “Resistant”. For the same molecule, the direction (peptide MS1 2.5 uM, feature loss_18q21.2) was “Resistant”.
Cc1nc(Nc2ncc(C(=O)Nc3c(C)cccc3Cl)s2)cc(N2CCN(CCO)CC2)n1 [Dasatinib, dasatinib] was tested, and the direction (peptide BAD 0.3 uM, feature IGLV321_R110) was “Resistant”, the direction (peptide BAD 0.3 uM, feature NOTCH1) was “Resistant” and the direction (peptide BAD 0.3 uM, feature RPS15) was “Resistant”. The direction (peptide BAD 0.3 uM, feature loss_6q) was “Resistant”, the direction (peptide BIM 0.01 uM, feature IGLV321_R110) was “Resistant” and the direction (peptide BIM 0.01 uM, feature NOTCH1) was “Resistant”. The direction (peptide BIM 0.01 uM, feature RPS15) was “Resistant”, the direction (peptide BIM 0.01 uM, feature loss_6q) was “Resistant” and the direction (peptide BIM 0.01 uM, feature loss_17q23.1) was “Sensitive”. For the same molecule, the direction (peptide MS1 2.5 uM, feature EC-i) was “Resistant”, the direction [27] was “Resistant” and the direction [28] was “Resistant”. For the same molecule, the direction [29] was “Resistant”, the direction [30] was “Resistant” and the direction (peptide MS1 2.5 uM, feature tri_12) was “Sensitive”. For the same molecule, the direction (peptide PUMA 1 uM, feature IGLV321_R110) was “Resistant”, the direction (peptide PUMA 1 uM, feature NOTCH1) was “Resistant” and the direction (peptide PUMA 1 uM, feature RPS15) was “Resistant”. For the same molecule, the direction (peptide PUMA 1 uM, feature loss_6q) was “Resistant” and the direction (peptide PUMA 1 uM, feature loss_17q23.1) was “Sensitive”.

Source: US20250255889A1, “METHODS FOR TREATMENT SELECTION FOR CHRONIC LYMPHOCYTIC LEUKEMIA (CLL)” (The Broad Institute, Inc., priority 2022, published 2025)
